For 27 compounds, IC50 results are on record in US8575201B2 (Boehringer Ingelheim International GmbH, priority 2010, dated 2013).

The target of experiment [1] is recombinant human FLAP protein (Homo sapiens (Human), UniProt P20292). Kind of experiment: FLAP binding assay (Scintillation Proximity Assay, displacement of [125I]L-691,831). The following applies: read-out: FLAP SPA IC50. As to the method:
Assessment of Biological Properties 1. Binding Assay: Compounds are assessed for the ability to bind to FLAP in a binding assay that measures compound-specific displacement of an iodinated (^125I) FLAP inhibitor via a Scintillation Proximity Assay format (adapted from S. Charleson et al., Mol. Pharmacol., 1992, 41, 873-879). […] The cells are lysed with a Dounce homogenizer and the material is centrifuged at 10,000×g for 10 minutes. The supernatant is then collected and centrifuged at 100,000×g for 60 minutes. To prepare membrane protein for an assay, an aliquot of the 100,000×g pellet is resuspended in 1 ml of buffer A, Dounce homogenized, and finally subjected to polytron mixing (30 seconds). […] Mol. Pharmacol., 41, 873-879, 1992) and finally 50 μl of the bead/protein mixture. (final concentrations: beads, 200 μg/well; protein, 5 μg/well; […] The plates are shaken for 2 h before reading on a Microbeta plate reader.

The test system of experiment [2] is synthesis of LTB4 in human whole blood. Kind of experiment: Human whole blood LTB4 production inhibition assay. Type of experiment: cell-based. The following applies: calcimycin stimulated, read-out: hWB LTB4 IC50. As to the method: Compounds are additionally tested in a human whole blood assay to determine their ability to inhibit the synthesis of LTB4 in a cellular system. Compounds are combined with heparinized human whole blood and incubated for 15 minutes at 37° C. Calcimycin (20 μM final, prepared in phosphate-buffered saline, pH 7.4) is then added and the mixture is incubated for another 30 minutes at 37° C. The samples are centrifuged for 5 min at low speed (1500×g) and the plasma layer is removed. Plasma LTB4 concentrations are then measured using an antibody-based homogenous time-resolved fluorescence method (CisBio, Bedford, Mass.).

SMILES strings stand for the structures.

Sequence of recombinant human FLAP protein (P20292 whole entry): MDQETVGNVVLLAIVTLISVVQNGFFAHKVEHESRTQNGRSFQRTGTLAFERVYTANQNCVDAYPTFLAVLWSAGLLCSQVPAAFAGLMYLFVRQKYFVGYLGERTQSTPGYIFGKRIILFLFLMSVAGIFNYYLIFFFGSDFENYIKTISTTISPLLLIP

The term IC50 denotes the concentration that inhibits the measured activity by half. `Nc1ncc(-c2ccc(C3(c4noc(-c5cnn(CC(F)(F)F)c5)n4)CCC3)cn2)cn1` [Example 69, 5-[5-(1-{5-[1-(2,2,2-trifluoroethyl)-1H-pyrazol-4-yl]-1,2,4-oxadiazol-3-yl}cyclobutyl)pyridin-2-yl]pyrimidin-2-amine]: the IC50 in experiment [1] worked out at 7.6 nM; in experiment [2], 170 nM.

As to `Cn1nccc1-c1nc(C2(c3ccc(-c4cnc(N)nc4)nc3)CCC2)no1` [Example 124, 5-(5-{1-[5-(1-methyl-1H-pyrazol-5-yl)-1,2,4-oxadiazol-3-yl]cyclobutyl}pyridin-2-yl)pyrimidin-2-amine], the IC50 in experiment [1] was found to be 11 nM; in experiment [2], 210 nM.

Consider `CN(C)c1nc(C2(c3ccc(-c4cnc(N)nc4)nc3)CCC2)no1` [Example 15, 5-(5-{1-[5-(dimethylamino)-1,2,4-oxadiazol-3-yl]cyclobutyl}pyridin-2-yl)pyrimidin-2-amine], for which the results for the IC50 in experiment [1] and in experiment [2] were 280 nM and 2600 nM, respectively.

Consider `CN(C)C(=O)Cn1cc(-c2nc(C3(c4ccc(-c5cnc(N)nc5)nc4)CCC3)no2)cn1` [Example 59, 2-[4-(3-{1-[6-(2-amino-pyrimidin-5-yl)-pyridin-3-yl]-cyclobutyl}-1,2,4-oxadiazol-5-yl)-pyrazol-1-yl]-N,N-dimethyl-acetamide], for which the half-inhibitory concentration (IC50) in experiment [1] was found to be 83 nM; in experiment [2], 610 nM.

For the compound `Nc1ncc(-c2ccc(C3(c4noc(-c5cnn(CC(=O)NC6CC6)c5)n4)CCC3)cn2)cn1` [Example 155, 2-[4-(3-{1-[6-(2-Amino-pyrimidin-5-yl)-pyridin-3-yl]-cyclobutyl}-[1,2,4]oxadiazol-5-yl)-pyrazol-1-yl]-N-cyclopropyl-acetamide], the values for the IC50 in experiment [1] and in experiment [2] were 63 nM and 550 nM, respectively.

`Nc1ncc(-c2ccc(C3(c4noc(-c5cn[nH]c5)n4)CCC3)nc2)cn1` [Example 132, 5-(6-{1-[5-(1H-pyrazol-4-yl)-1,2,4-oxadiazol-3-yl]cyclobutyl}pyridin-3-yl)pyrimidin-2-amine]: the IC50 in experiment [1] turned out to be 46 nM; in experiment [2], 370 nM.

`Nc1ncc(-c2ccc(C3(c4noc(-c5cocn5)n4)CCC3)cn2)cn1` [Example 24, 5-(5-{1-[5-(1,3-oxazol-4-yl)-1,2,4-oxadiazol-3-yl]cyclobutyl}pyridin-2-yl)pyrimidin-2-amine]: the IC50 in experiment [1] worked out at 110 nM; in experiment [2], 1000 nM.

Take `Nc1ncc(-c2ccc(C3(c4noc(-c5cnco5)n4)CCC3)cn2)cn1` [Example 98, 5-(5-{1-[5-(1,3-oxazol-5-yl)-1,2,4-oxadiazol-3-yl]cyclobutyl}pyridin-2-yl)pyrimidin-2-amine]: the IC50 in experiment [1] was 110 nM; in experiment [2], more than 5000 nM.

Take `Cc1cc(-c2nc(C3(c4ccc(-c5cnc(N)nc5)cn4)CCC3)no2)[nH]n1` [Example 133, 5-(6-{1-[5-(3-methyl-1H-pyrazol-5-yl)-1,2,4-oxadiazol-3-yl]cyclobutyl}pyridin-3-yl)pyrimidin-2-amine]: the IC50 in experiment [1] came out at 43 nM; in experiment [2], 340 nM.

Take `Nc1ncc(-c2ccc(C3(c4noc(N5CCCC5)n4)CCC3)cn2)cn1` [Example 76, 5-(5-{1-[5-(pyrrolidin-1-yl)-1,2,4-oxadiazol-3-yl]cyclobutyl}pyridin-2-yl)pyrimidin-2-amine]: the concentration for half-maximal inhibition (IC50) is 92 nM in experiment [1] and 920 nM in experiment [2].

For `NC(=O)Cn1cc(-c2nc(C3(c4ccc(-c5cnc(N)nc5)nc4)CCC3)no2)cn1` [Example 70, 2-[4-(3-{1-[6-(2-aminopyrimidin-5-yl)pyridin-3-yl]cyclobutyl}-1,2,4-oxadiazol-5-yl)-1H-pyrazol-1-yl]acetamide], the results for the IC50 in experiment [1] and in experiment [2] were 150 nM and 2100 nM, respectively.

For `Cn1cnnc1-c1nc(C2(c3ccc(-c4cnc(N)nc4)nc3)CCC2)no1` [Example 37, 5-(5-{1-[5-(4-methyl-4H-1,2,4-triazol-3-yl)-1,2,4-oxadiazol-3-yl]cyclobutyl}pyridin-2-yl)pyrimidin-2-amine], the IC50 in experiment [1] worked out at 110 nM; in experiment [2], 790 nM.

For `CC(C)(O)Cn1cc(-c2nc(C3(c4ccc(-c5cnc(N)nc5)nc4)CCC3)no2)cn1` [Example 54, 1-[4-(3-{1-[6-(2-aminopyrimidin-5-yl)pyridin-3-yl]cyclobutyl}-1,2,4-oxadiazol-5-yl)-1H-pyrazol-1-yl]-2-methylpropan-2-ol], the values for the IC50 in experiment [1] and in experiment [2] were 28 nM and 120 nM, respectively.

In the case of `Nc1ncc(-c2ccc(C3(c4noc(-c5cnn(CCF)c5)n4)CCC3)cn2)cn1` [Example 67, 5-[5-(1-{5-[1-(2-fluoroethyl)-1H-pyrazol-4-yl]-1,2,4-oxadiazol-3-yl}cyclobutyl)pyridin-2-yl]pyrimidin-2-amine], the IC50 in experiment [1] stood at 9.5 nM; in experiment [2], 69 nM.

Turning to `COC1CCN(C(=O)Cn2cc(-c3nc(C4(c5ccc(-c6cnc(N)nc6)nc5)CCC4)no3)cn2)C1` (stereo not drawn) [Example 161, 2-[4-(3-{1-[6-(2-amino-pyrimidin-5-yl)-pyridin-3-yl]-cyclobutyl}-[1,2,4]oxadiazol-5-yl)-pyrazol-1-yl]-1-(3-methoxy-pyrrolidin-1-yl)-ethanone], the IC50 amounted to 250 nM in experiment [1] and 1100 nM in experiment [2].

As to `COCCNc1cnc(-c2nc(C3(c4ccc(-c5cnc(N)nc5)nc4)CCC3)no2)cn1` [Example 56, 5-{5-[1-(5-{5-[(2-methoxyethyl)amino]pyrazin-2-yl}-1,2,4-oxadiazol-3-yl)cyclobutyl]pyridin-2-yl}pyrimidin-2-amine], the IC50 in experiment [2] amounted to 24 nM.

As to `COC(=O)[C@@H]1CN(c2ccc(-c3nc(C4(c5ccc(-c6cnc(N)nc6)nc5)CCC4)no3)cn2)CCN1` [Example 39, methyl (2S)-[5-(3-{1-[6-(2-aminopyrimidin-5-yl)pyridin-3-yl]cyclobutyl}-1,2,4-oxadiazol-5-yl)pyridin-2-yl]piperazine-2-carboxylate], in experiment [2], the IC50 came to 86 nM.

With `CC(C)(C)NC(=O)Cn1cc(-c2nc(C3(c4ccc(-c5cnc(N)nc5)nc4)CCC3)no2)cn1` [Example 144, 2-[4-(3-{1-[6-(2-aminopyrimidin-5-yl)pyridin-3-yl]cyclobutyl}-1,2,4-oxadiazol-5-yl)-1H-pyrazol-1-yl]-N-tert-butylacetamide], the 50% inhibitory concentration (IC50) in experiment [2] was determined as 190 nM.

With `N#CCn1cc(-c2nc(C3(c4ccc(-c5cnc(N)cn5)nc4)CCC3)no2)cn1` [Example 170, [4-(3-{1-[6-(5-Amino-pyrazin-2-yl)-pyridin-3-yl]-cyclobutyl}-[1,2,4]oxadiazol-5-yl)-pyrazol-1-yl]-acetonitrile], in experiment [2], the IC50 came to 51 nM.

As for `Cc1nc(N)cnc1-c1ccc(C2(c3noc(-c4cnn(CC(C)(C)O)c4)n3)CCC2)cn1` [Example 172, 1-[4-(3-{1-[6-(5-Amino-3-methyl-pyrazin-2-yl)-pyridin-3-yl]-cyclobutyl}-[1,2,4]oxadiazol-5-yl)-pyrazol-1-yl]-2-methyl-propan-2-ol], the IC50 in experiment [2] was 51 nM.

Consider `Nc1ncc(-c2ccc(C3(c4noc(-c5ccc6[nH]ncc6c5)n4)CCC3)cn2)cn1` [Example 79, 5-(5-{1-[5-(1H-indazol-5-yl)-1,2,4-oxadiazol-3-yl]cyclobutyl}pyridin-2-yl)pyrimidin-2-amine], for which the IC50 in experiment [2] was determined as 68 nM.

As to `COCCn1cc(-c2nc(C3(c4ccc(-c5cnc(N)nc5)nc4)CCC3)no2)cn1` [Example 28, 5-[5-(1-{5-[1-(2-methoxyethyl)-1H-pyrazol-4-yl]-1,2,4-oxadiazol-3-yl}cyclobutyl)pyridin-2-yl]pyrimidin-2-amine], the IC50 in experiment [2] was determined as 210 nM.

For the compound `Cc1nc(N)cnc1-c1ccc(C2(c3noc(-c4cnn(C5COC5)c4)n3)CCC2)cn1` [Example 169, 6-Methyl-5-(5-{1-[5-(1-oxetan-3-yl-1H-pyrazol-4-yl)-[1,2,4]oxadiazol-3-yl]-cyclobutyl}-pyridin-2-yl)-pyrazin-2-ylamine], in experiment [2], the IC50 was found to be 21 nM.

Regarding `CCNC(=O)Cn1cc(-c2nc(C3(c4ccc(-c5cnc(N)nc5)nc4)CCC3)no2)cn1` [Example 158, 2-[4-(3-{1-[6-(2-amino-pyrimidin-5-yl)-pyridin-3-yl]-cyclobutyl}-[1,2,4]oxadiazol-5-yl)-pyrazol-1-yl]-N-ethyl-acetamide], in experiment [2], the half-inhibitory concentration (IC50) is 550 nM.

As to `CCNc1cnc(-c2nc(C3(c4ccc(-c5cnc(N)nc5)nc4)CCC3)no2)cn1` [Example 57, 5-[5-(1-{5-[5-(ethylamino)pyrazin-2-yl]-1,2,4-oxadiazol-3-yl}cyclobutyl)pyridin-2-yl]pyrimidin-2-amine], the 50% inhibitory concentration (IC50) in experiment [2] is 34 nM.

Regarding `CN1CCN(c2cnc(-c3nc(C4(c5ccc(-c6cnc(N)nc6)nc5)CCC4)no3)cn2)CC1` [Example 61, 5-[5-(1-{5-[5-(4-methylpiperazin-1-yl)pyrazin-2-yl]-1,2,4-oxadiazol-3-yl}cyclobutyl)pyridin-2-yl]pyrimidin-2-amine], the IC50 in experiment [2] is 41 nM.

In the case of `CNc1cnc(-c2ccc(C3(c4noc(-c5cnn(CC#N)c5)n4)CCC3)cn2)cn1` [Example 173, [4-(3-{1-[6-(5-Methylamino-pyrazin-2-yl)-pyridin-3-yl]-cyclobutyl}-[1,2,4]oxadiazol-5-yl)-pyrazol-1-yl]-acetonitrile], in experiment [2], the IC50 was determined as 18 nM.
